Reference: patent publication US11090319B2, “Therapeutic uses of pharmaceutical compositions comprising cyclic boronic acid ester derivatives” (Melinta Subsidiary Corp., priority 2010, dated 2021)
Where two headings read alike, the source gives them in different places.

Legend:
SA1000 Salmonella CMY-2 = assay: Ceftazidime MIC with fixed concentration of BLI; assay type: cell-based; settings: SA1000 CMY-2
Method: (§1) Next, ceftazidime potentiation activity of several cyclic boronic acid ester derivatives was tested using a larger panel of strains expressing β-lactamase hydrolyzing enzymes. Ceftazidime MICs were determined alone and in the presence of fixed concentrations of various cyclic boronic acid ester derivatives.

[1] = tested on: PAM2005 Pseudomonas aeruginosa ampC; assay: Ceftazidime MIC with fixed concentration of BLI; assay type: cell-based; settings: for Ceftazidime MIC with cyclic boronic acid ester derivative: derivative at 10 μg/mL
Method: as §1

[2] = tested on: CF1001 Citrobacter freundii Hyper AmpC expression; assay: Ceftazidime MIC with fixed concentration of BLI; assay type: cell-based
Method: as §1

[3] = tested on: KP1014 Klebsiella pneumoniae Vim-1; assay: Ceftazidime MIC with fixed concentration of BLI; assay type: cell-based; settings: KP1014 Vim-1
Method: as §1

[4] = tested on: AB1052 Acinetobacter baumannii OXA-24; assay: Ceftazidime MIC with fixed concentration of BLI; assay type: cell-based; settings: AB1052 OXA-24
Method: as §1

[5] = tested on: KP1013 Klebsiella pneumoniae CMY-2; assay: Ceftazidime MIC with fixed concentration of BLI; assay type: cell-based; settings: KP1013 CMY-2
Method: as §1

[6] = tested on: ECL1003 Enterobacter cloacae Hyper AmpC expression; assay: Ceftazidime MIC with fixed concentration of BLI; assay type: cell-based
Method: as §1

[7] = tested on: KP1006 Klebsiella pneumoniae CTX-M2; assay: Ceftazidime MIC with fixed concentration of BLI; assay type: cell-based
Method: as §1

[8] = tested on: EC1007 Escherichia coli KPC-3; assay: Ceftazidime MIC with fixed concentration of BLI; assay type: cell-based; settings: EC1007 KPC-3; for Ceftazidime MIC with cyclic boronic acid ester derivative: derivative at 10 μg/mL
Method: as §1

[9] = tested on: EC1016 Escherichia coli FOX-5; assay: Ceftazidime MIC with fixed concentration of BLI; assay type: cell-based; settings: EC1016 FOX-5
Method: as §1

[10] = biological target: CTX-M-14, lysate of KP1005 (Escherichia coli, UniProt Q9L5C7); assay: Inhibition of ceftazidime hydrolysis by bacterial lysate
GES-1, lysate of pa 1063 = GES-1, lysate of pa 1063 (Klebsiella pneumoniae, UniProt Q9KJY7); assay: as above
OXA-10, lysate of KP1007 = OXA-10, lysate of KP1007 (Pseudomonas aeruginosa, UniProt P14489); assay: as above
[11] = biological target: various β-lactamases (bacterial lysates) (Pseudomonas aeruginosa, UniProt P14489); assay: biochemical; assay type: biochemical; settings: AZT IC50 KP1007 OXA-10
[12] = biological target: various β-lactamases (bacterial lysates) (Klebsiella pneumoniae, UniProt Q9F663, H272Y); assay: biochemical; assay type: biochemical
[13] = biological target: various β-lactamases (bacterial lysates) (Escherichia coli, UniProt A0A649V088); assay: biochemical; assay type: biochemical; settings: read-out: AZT IC50 KP1005 CTX-M-14
[14] = biological target: various β-lactamases (bacterial lysates) (Klebsiella pneumoniae, UniProt Q9F663); assay: biochemical; assay type: biochemical; settings: aztreonam cleavage
[15] = biological target: various β-lactamases (bacterial lysates) (Salmonella typhimurium, UniProt P0A1V8); assay: biochemical; assay type: biochemical; settings: AZT IC50 KPX1001 OXA-2
[16] = biological target: various β-lactamases (bacterial lysates) (Escherichia coli, UniProt A0A5R8T042); assay: biochemical; assay type: biochemical; settings: read-out: AZT IC50 KP1009 CTX-M-15
OXA-2, lysate of KX1000 = OXA-2, lysate of KX1000 (Salmonella typhimurium, UniProt P0A1V8); assay: Inhibition of ceftazidime hydrolysis by bacterial lysate
SHV-5, lysate of ec308 = SHV-5, lysate of ec308 (Escherichia coli, UniProt P0AD63, E235K/G234S); assay: as above
KPC-2, lysate of KP1008 = KPC-2, lysate of KP1008 (Klebsiella pneumoniae, UniProt Q9F663); assay: as above
SHV-18, lysate of KP1012 = SHV-18, lysate of KP1012 (Klebsiella pneumoniae, UniProt P0AD64, E235K/G234A/R39S); assay: as above
[17] = biological target: CTX-M-15, lysate of KP1009 (Escherichia coli, UniProt Q9EXV5); assay: as above
[18] = tested on: SM1000 Serratia marcescens SME-2; assay: Checkerboard assay, biapenem potentiation; settings: Biapenem MIC 8-fold; SM1000 SME-2 class A
KPC-2, lysate of KP1004 = KPC-2, lysate of KP1004 (Klebsiella pneumoniae, UniProt Q9F663); assay: Inhibition of ceftazidime hydrolysis by bacterial lysate
[19] = tested on: ECL1004 Enterobacter cloacae NMC-A; assay: Checkerboard assay, biapenem potentiation; settings: Biapenem MIC 8-fold; ECL1004 NMC-A class A
[20] = Klebsiella pneumoniae, read-out: Ceftazidime MIC Alone
[21] = Escherichia coli, read-out: Ceftazidime MIC Alone

CTX-M-15, lysate of KP1009, sequence (Q9EXV5 entry or part of it): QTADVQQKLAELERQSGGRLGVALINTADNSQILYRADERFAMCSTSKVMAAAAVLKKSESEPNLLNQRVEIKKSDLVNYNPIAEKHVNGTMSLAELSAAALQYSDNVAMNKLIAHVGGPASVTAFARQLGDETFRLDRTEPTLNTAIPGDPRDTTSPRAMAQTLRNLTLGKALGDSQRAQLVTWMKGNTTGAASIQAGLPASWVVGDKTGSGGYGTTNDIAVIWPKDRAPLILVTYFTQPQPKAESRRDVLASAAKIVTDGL
various β-lactamases (bacterial lysates) (Escherichia coli, UniProt A0A5R8T042), sequence (A0A5R8T042 29-291): as the sequence (Q9EXV5 entry or part of it) above

## CC(C)(O/N=C(\C(=O)N[C@@H]1C(=O)N2C(C(=O)[O-])=C(C[n+]3ccccc3)CS[C@H]12)c1csc(N)n1)C(=O)O [Ceftazidime, reference compound]
SA1000 Salmonella CMY-2; Salmonella, read-out: Ceftazidime MIC Alone
  MIC: > 8 µg/mL
[1]; Pseudomonas aeruginosa, read-out: Ceftazidime MIC Alone
  MIC: > 8 µg/mL
[2]; Citrobacter freundii, read-out: Ceftazidime MIC Alone
  MIC: > 8 µg/mL
[3]; [20]
  MIC: > 8 µg/mL
[4]; Acinetobacter baumannii, read-out: Ceftazidime MIC Alone
  MIC: > 8 µg/mL
[5]; [20]
  MIC: > 8 µg/mL
[6]; Enterobacter cloacae, read-out: Ceftazidime MIC Alone
  MIC: > 8 µg/mL
[7]; [20]
  MIC: 1 to 8 µg/mL
[8]; [21]
  MIC: > 8 µg/mL
[9]; [21]
  MIC: > 8 µg/mL

## CC(=O)N[C@H]1CCC(CC(=O)O)OB1O (stereo partly drawn) [Compound 3, 2-((3R)-3-acetamido-2-hydroxy-1,2-oxaborinan-6-yl)acetic acid]
[10]
  IC50: > 4.65 µM
GES-1, lysate of pa 1063
  IC50: > 4.65 µM
OXA-10, lysate of KP1007
  IC50: > 4.65 µM
[11]
  IC50: > 9.3 µM
[12]
  IC50: < 2.33 µM
[13]
  IC50: < 2.33 µM
[14]; lysate KP1004 KPC-2, read-out: AZT IC50 KP1004 KPC-2 (converted)
  IC50: < 2.33 µM
[14]; lysate KP1008 KPC-2, read-out: AZT IC50 KP1008 KPC-2
  IC50: 2.33 to 9.3 µM
[15]
  IC50: > 9.3 µM
[16]
  IC50: > 9.3 µM
SA1000 Salmonella CMY-2; derivative at 10 μg/mL
  Ceftazidime MIC with cyclic boronic acid ester derivative: Z (MIC of greater than 8 μg/mL)
[1]
  Ceftazidime MIC with cyclic boronic acid ester derivative: Z (MIC of greater than 8 μg/mL)
[2]; derivative at 10 μg/mL
  Ceftazidime MIC with cyclic boronic acid ester derivative: Z (MIC of greater than 8 μg/mL)
[3]; derivative at 10 μg/mL
  Ceftazidime MIC with cyclic boronic acid ester derivative: Z (MIC of greater than 8 μg/mL)
[4]; derivative at 10 μg/mL
  Ceftazidime MIC with cyclic boronic acid ester derivative: Z (MIC of greater than 8 μg/mL)
[5]; derivative at 10 μg/mL
  Ceftazidime MIC with cyclic boronic acid ester derivative: Z (MIC of greater than 8 μg/mL)
[6]; derivative at 10 μg/mL
  Ceftazidime MIC with cyclic boronic acid ester derivative: Z (MIC of greater than 8 μg/mL)
[7]; derivative at 10 μg/mL
  Ceftazidime MIC with cyclic boronic acid ester derivative: X (MIC of 1 μg/mL or less)
[8]
  Ceftazidime MIC with cyclic boronic acid ester derivative: X (MIC of 1 μg/mL or less)
[9]; derivative at 10 μg/mL
  Ceftazidime MIC with cyclic boronic acid ester derivative: Z (MIC of greater than 8 μg/mL)
OXA-2, lysate of KX1000
  IC50: > 4.65 µM
SHV-5, lysate of ec308
  IC50: > 4.65 µM
KPC-2, lysate of KP1008
  IC50: 0.465 to 4.65 µM
SHV-18, lysate of KP1012
  IC50: > 4.65 µM
[17]
  IC50: > 4.65 µM
[18]
  MPC8: Y (MPC8 of 0.16 μg/mL to 1 μg/mL)
KPC-2, lysate of KP1004
  IC50: < 0.465 µM
[19]
  MPC8: X (MPC8 of less than 0.16 μg/mL)

## Cl.N[C@H]1CCC(CC(=O)O)OB1O (stereo partly drawn) [Compound 7, 2-((3R)-3-amino-2-hydroxy-1,2-oxaborinan-6-yl)acetic acid hydrochloride]
[10]
  IC50: > 4.77 µM
GES-1, lysate of pa 1063
  IC50: 0.477 to 4.77 µM
OXA-10, lysate of KP1007
  IC50: > 4.77 µM
[1]
  Ceftazidime MIC with cyclic boronic acid ester derivative: Z (MIC of greater than 8 μg/mL)
[8]
  Ceftazidime MIC with cyclic boronic acid ester derivative: Z (MIC of greater than 8 μg/mL)
OXA-2, lysate of KX1000
  IC50: > 4.77 µM
SHV-5, lysate of ec308
  IC50: > 4.77 µM
KPC-2, lysate of KP1008
  IC50: > 4.77 µM
SHV-18, lysate of KP1012
  IC50: > 4.77 µM
[17]
  IC50: 0.477 to 4.77 µM
KPC-2, lysate of KP1004
  IC50: > 4.77 µM
